Measured values as given in publication PMC3286537 (Purinergic Signalling, 2011).
Numbering of substitutions follows the chain as printed. Like-named read-outs stand apart in the source and are kept apart here. Blank lines part the entries; values can stand above or below the compound they belong to.

Legend:
hA2BR [1] = biological target: T1, hA2BR (Homo sapiens, UniProt P29275); conditions: CHO cell membranes expressing the hA2BR; cited from earlier work
T1 sequence (P29275 1-332): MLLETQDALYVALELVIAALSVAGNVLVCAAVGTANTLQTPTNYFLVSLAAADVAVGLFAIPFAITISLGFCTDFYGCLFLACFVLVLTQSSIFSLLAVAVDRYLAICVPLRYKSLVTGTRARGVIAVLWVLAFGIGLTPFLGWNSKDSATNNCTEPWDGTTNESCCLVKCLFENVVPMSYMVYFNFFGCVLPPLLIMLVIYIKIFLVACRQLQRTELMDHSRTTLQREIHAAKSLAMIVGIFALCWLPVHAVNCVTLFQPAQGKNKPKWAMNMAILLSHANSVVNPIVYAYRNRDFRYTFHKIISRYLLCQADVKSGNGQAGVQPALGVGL

hA2BR [2] = biological target: T1, hA2BR; assay: Saturation binding on whole yeast cells expressing the hA2BR; conditions: read-out: K D, yeast
[3] = biological target: T2, human adenosine A2BR mutant Y202S^5.58 (Homo sapiens, UniProt P29275, Y202S); assay: Solid yeast growth assay, mutant Y202S; assay type: cell-based; conditions: inverse agonist response
T2 sequence (P29275 1-332 Y202S): T1 sequence (P29275 1-332) with Y202S

[4] = tested on: other 11 mutant adenosine A2BRs; assay: Solid yeast growth assay, the other 11 mutant receptors; assay type: cell-based, human; conditions: 10 μM ZM241385
[5] = tested on: A2BR mutant C167^EL2 to serine; conditions: C167^EL2 mutated to serine; cited from earlier work
[6] = biological target: T3, human adenosine A2BR mutant C167S^EL2 (Homo sapiens, UniProt P29275, C167S); assay: Liquid yeast growth assay, mutant C167S
T3 sequence (P29275 1-332 C167S): T1 sequence (P29275 1-332) with C167S

[7] = biological target: T2, human adenosine A2BR mutant Y202S^5.58; assay: Liquid yeast growth assay, mutant Y202S

Kd (hA2BR [2]): 0.81 ± 0.02 nM
SMILES: CCCn1c(=O)[nH]c2nc(-c3ccc(S(=O)(=O)N4CCN(c5ccc(Cl)cc5)CC4)cc3)[nH]c2c1=O [[^3H]PSB-603]
Kd (hA2BR [1]): 0.4 ± 0.19 nM

effect on constitutive activity [3]: could be reduced to wild-type levels | effect on constitutive activity [4]: could be fully suppressed
SMILES: Nc1nc(NCCc2ccc(O)cc2)nc2nc(-c3ccco3)nn12 [ZM241385, 4-{2-[7-amino-2-(2-furyl)[1,2,4]triazolo-[2,3-a][1,3,5]triazin-5-yl-amino]ethyl}phenol]

SMILES: N#Cc1c(N)nc(SCC(N)=O)c(C#N)c1-c1ccc(OCC2CC2)cc1 [BAY 60-6583, 2-[6-amino-3,5-dicyano-4-[4-(cyclopropylmethoxy)phenyl]pyridin-2-ylsulfanyl]acetamide]
fold increase in potency [5]: 2.5 fold | fold increase in potency compared with wild type [6]: 2 fold | fold increase in potency compared with wild type [7]: 10 fold
